Earlier results in US6346524B1, “Cancer treatment with temozolomide” (Schering Corporation, priority 1999, dated 2002).

Key:
advanced melanoma [1] = details: patients with advanced melanoma; Journal of Clinical Oncology, Vol 13, No. 4, 1995, pp 910-913
advanced melanoma [2] = details: patients having advanced melanoma; Newlands et al. Br. J. Cancer 65 (2) 287-291 (1992)

Cn1nnc2c(C(N)=O)ncn2c1=O [Temozolomide, 3,4-dihydro-3-methyl-4-oxoimidazo-[5,1-d] 1,2,3,4-tetrazin-8-carboximide]
clinical response achieved, % of patients (advanced melanoma [1]): 21% | clinical responses achieved, % of patients (advanced melanoma [2]): 17%
